As a reminder, the pIC50 is −log10 of the IC50, conventionally taken in molar units. Broadly, the GI50 is the concentration giving 50% growth inhibition. A high value points to lower sensitivity of the cells.

Among the data in patent US20250179059A1 (The Regents of the University of California, priority 2021, published 2025) are IC50 and GI50 values, retold here.

For assay [1], the target named is T1, human BRD4 bromodomain II (Homo sapiens, UniProt O60885).
T1 construct: human BRD4 bromodomain II [based on Genbank NM_058243, residues 349-460]; host or cells: E. coli
In words: Bromodomain binding assay (AlphaScreen), BRD4 BDII. A digest of the protocol:
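Inhibition of acetyl-H4 peptide binding to human BRD4 bromodomains is measured by bead-based proximity (AlphaScreen) in pH 7.5 HEPES buffer containing 0.05% CHAPS and 0.1% BSA. Ten compound concentrations in 3-fold steps give competitive binding IC50s.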
Background: Bead proximity is the source of the signal in Alpha formats.

Assay [2] deals with human SKM-1 acute myeloid leukemia cells. As to the kind of experiment: SKM-1 antiproliferation cell-based assay (ATPlite). The conditions noted are these: Homo sapiens. A digest of the protocol:
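Log-phase cells in RPMI 1640/15% FBS were seeded at 34722 cells/mL and exposed for 4 days to nine-concentration DMSO serial dilutions in triplicate. Viability was read as ATP luminescence (ATPlite 1step), and IC50 values came from variable-slope non-linear regression.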
For orientation: In ATP-based viability assays light output follows the ATP content of the culture.

[3] abbreviates: AlphaScreen assay, Table C2, read-out: BRD4 BDII IC50.
The mark [4] stands for this setting: SKM-1, 96 h, SKM-1 antiproliferation assay, 4 days, Table C2.
The mark [5] stands for this setting: BRD4 BDII AlphaScreen assay, read-out: BRD4 BD2 IC50.
Setting [6] is: SKM-1, SKM-1 antiproliferation assay.

pIC50: −log10 of the molar value. Like-named read-outs stand apart in the source and are kept apart here.

For `Cc1cc(-c2ccc(-n3ccn(C)c3=O)c(Cl)c2)c(O)c(-c2cc(N3CCN[C@H](C)C3)c3nccnc3c2)c1` [Example 574], the pIC50 in assay [1] (setting [3]) is 9.00 to 11.00. In assay [2] (setting [4]), this compound had a concentration for 50% growth inhibition (GI50) of 0.3 to 30 nM.
Regarding `Cn1ccn(-c2ccc(-c3cc(F)cc(-c4ccnc(N5CC6CNC(C6)C5)c4)c3O)cc2Cl)c1=O` (stereo not drawn) [Example 554, 1-(3′-(2-(3,6-diazabicyclo[3.2.1]octan-3-yl)pyridin-4-yl)-3-chloro-5′-fluoro-2′-hydroxy-[1,1′-biphenyl]-4-yl)-3-methyl-1H-imidazol-2(3H)-one], in assay [1] (setting [3]), the negative-log IC50 (pIC50) is 8.00 to 9.00. Further, the GI50 in assay [2] (setting [4]) was 0.3 to 30 nM.
On the same counts, the results for `Cn1ccn(-c2ccc(-c3cc(F)cc(-c4ccnc(N5CC[C@@](C)(N)C5)c4)c3O)cc2Cl)c1=O` [Example 716, (R)-1-(3′-(2-(3-amino-3-methylpyrrolidin-1-yl)pyridin-4-yl)-3-chloro-5′-fluoro-2′-hydroxy-[1,1′-biphenyl]-4-yl)-3-methyl-1,3-dihydro-] are 9.00 to 11.00 and 0.3 to 30 nM.
Consider `Cc1cc(-c2ccc(-n3ccn(C)c3=O)c(Cl)c2)c(O)c(-c2ccnc(N3CC[C@@](C)(O)C3)c2)n1` [Example 996, (R)-1-(2-chloro-4-(3-hydroxy-2′-(3-hydroxy-3-methylpyrrolidin-1-yl)-6-methyl-[2,4′-bipyridin]-4-yl)phenyl)-3-methyl-1H-imidazol-2(3H)-one], for which the pIC50 in assay [1] (setting [5]) was 8.00 to 9.00. In assay [2] (setting [6]), this compound came in with a GI50 of 0.3 to 30 nM.
`CC(C)N1CCN(c2cc(-c3cc(F)cc(-c4ccc(-n5ccn(C)c5=O)c(Cl)c4)c3O)ccc2F)CC1` [Example 720, 1-(3-chloro-4″,5′-difluoro-2′-hydroxy-3″-(4-isopropylpiperazin-1-yl)-[1,1′:3′,1″-terphenyl]-4-yl)-3-methyl-1H-imidazol-2(3H)-one]: in assay [1] (setting [3]), the pIC50 was 9.00 to 11.00. This compound had a concentration for 50% growth inhibition (GI50) in assay [2] (setting [4]) of 0.3 to 30 nM.
On the same counts, the results for `C[C@@H]1CN(c2cccc(-c3cc(F)cc(-c4ccc(-n5ccn(C)c5=O)c(Cl)c4)c3O)c2)CCN1` [Example 671, (R)-1-(3-chloro-5′-fluoro-2′-hydroxy-3″-(3-methylpiperazin-1-yl)-[1,1′:3′,1″-terphenyl]-4-yl)-3-methyl-1H-imidazol-2(3H)-one] are 9.00 to 11.00 and 0.3 to 30 nM.
In the same order, the values of `CN1CCN(c2ccc(-c3cc(F)cc(-c4cnc(NCCO)c(N5CCNCC5)c4)c3O)cc2Cl)C1=O` [Example 405, 1-(3-chloro-5′-fluoro-2′-hydroxy-3′-(6-((2-hydroxyethyl)amino)-5-(piperazin-1-yl)pyridin-3-yl)-[1,1′-biphenyl]-4-yl)-3-methylimidazolidin-2-one] are 8.00 to 9.00 and 30 to 300 nM.
Turning to `Cn1ccn(-c2ccc(-c3cc(F)cc(-c4ccnc(N5CCC[C@H](CN)C5)c4)c3O)cc2Cl)c1=O` [Example 497, (R)-1-(3′-(2-(3-(aminomethyl)piperidin-1-yl)pyridin-4-yl)-3-chloro-5′-fluoro-2′-hydroxy-[1,1′-biphenyl]-4-yl)-3-methyl-1H-imidazol-2(3H)-one], the pIC50 in assay [1] (setting [3]) is 8.00 to 9.00. The compound also gave a GI50 in assay [2] (setting [4]) of 300 to 3000 nM.
For `Cn1ccn(-c2ccc(-c3cc(F)cc(-c4cnc(OC(F)F)c(N5CCN(C(C)(C)C)CC5)c4)c3O)cc2Cl)c1=O` [Example 823, 1-(3′-(5-(4-(tert-butyl)piperazin-1-yl)-6-(difluoromethoxy)pyridin-3-yl)-3-chloro-5′-fluoro-2′-hydroxy-[1,1′-biphenyl]-4-yl)-3-methyl-1H-imidazol-2(3H)-one], in assay [1] (setting [3]), the negative-log IC50 (pIC50) was 8.00 to 9.00. For the same compound, the concentration for 50% growth inhibition (GI50) in assay [2] (setting [4]) was 0.3 to 30 nM.
In the same order, the values of `C[C@H]1CN(c2cc(-c3cc(F)cc(-c4ccc(-n5ccn(C)c5=O)c(Cl)c4)c3O)cc3[nH]ncc23)CCN1` [Example 595, (S)-1-(3-chloro-5′-fluoro-2′-hydroxy-3′-(4-(3-methylpiperazin-1-yl)-1H-indazol-6-yl)-[1,1′-biphenyl]-4-yl)-3-methyl-1H-imidazol-2(3H)-one] are 8.00 to 9.00 and 0.3 to 30 nM.
Take `Cc1cc(-c2cc(-c3ccn[nH]3)cc(N3CCNCC3)c2)c(O)c(-c2ccc(-n3ccn(C)c3=O)c(Cl)c2)c1` [Example 569]: the pIC50 in assay [1] (setting [3]) is 8.00 to 9.00. In assay [2] (setting [4]), this compound registered a GI50 of 30 to 300 nM.
On the same counts, the results for `CN(C)C1(c2cccc(-c3cc(F)cc(-c4ccc(-n5ccn(C)c5=O)c(Cl)c4)c3O)c2)CC1` [Example 788, 1-(3-chloro-3″-(1-(dimethylamino)cyclopropyl)-5′-fluoro-2′-hydroxy-[1,1′:3′,1″-terphenyl]-4-yl)-3-methyl-1H-imidazol-2(3H)-one] are 7.00 to 8.00 and 300 to 3000 nM.
For `Cn1ccn(-c2ccc(-c3cc(F)cc(-c4cc(N5CCNCC5)c5nc[nH]c5c4)c3O)cc2Cl)c1=O` [Example 504, 1-(3-chloro-5′-fluoro-2′-hydroxy-3′-(4-(piperazin-1-yl)-1H-benzo[d]imidazol-6-yl)-[1,1′-biphenyl]-4-yl)-3-methyl-1H-imidazol-2(3H)-one], the negative logarithm of the IC50 (pIC50) in assay [1] (setting [3]) was 8.00 to 9.00. The compound further yielded a 50% growth inhibitory concentration (GI50) in assay [2] (setting [4]) of 0.3 to 30 nM.
In the same order, the values of `CC(C)N1CCN(c2cc(-c3cc(F)cc(-c4ccc(-n5ccn(C)c5=O)c(Cl)c4)c3O)cnn2)CC1` [Example 797, 1-(3-chloro-5′-fluoro-2′-hydroxy-3′-(6-(4-isopropylpiperazin-1-yl)pyridazin-4-yl)-[1,1′-biphenyl]-4-yl)-3-methyl-1H-imidazol-2(3H)-one] are 9.00 to 11.00 and 0.3 to 30 nM.
On the same counts, the results for `COc1cc(-c2ccnc(N3CCNCC3)c2)c(O)c(-c2ccc(N3CCN(C)C3=O)c(Cl)c2)c1` [Example 312, l-(3-chloro-2′-hydroxy-5′-methoxy-3′-(2-(piperazin-1-yl)pyridin-4-yl)-[1,1′-biphenyl]-4-yl)-3-methylimidazolidin-2-one] are 8.00 to 9.00 and 30 to 300 nM.
For `CC(C)c1cc(-c2cc(F)cc(-c3cccc(N4CCN(C(C)(C)C)CC4)c3)c2O)cc(Cl)c1-n1ccn(C)c1=O` [Example 932, 1-(3″-(4-(tert-butyl)piperazin-1-yl)-3-chloro-5′-fluoro-2′-hydroxy-5-isopropyl-[1,1′:3′,1″-terphenyl]-4-yl)-3-methyl-1H-imidazol-2(3H)-one], the pIC50 in assay [1] (setting [5]) was less than 7.00. The GI50 in assay [2] (setting [6]) lay within 300 to 3000 nM.
Take `Cn1ccn(-c2ccc(-c3cc(F)cc(-c4ccnc(N5CCN[C@H](CN)C5)c4)c3O)cc2Cl)c1=O` [Example 680, (R)-1-(3′-(2-(3-(aminomethyl)piperazin-l-yl)pyridin-4-yl)-3-chloro-5′-fluoro-2′-hydroxy-[1,1′-biphenyl]-4-yl)-3-methyl-1H-imidazol-2(3H)-one]: in assay [1] (setting [3]), the pIC50 is 9.00 to 11.00. In assay [2] (setting [4]), this compound showed a GI50 of 30 to 300 nM.
On the same counts, the results for `COc1cc(-c2cccc(-c3ccc(NC(C)=O)c(F)c3)c2O)cc(N2CCNCC2)n1` [Example 339, N-(3-fluoro-2′-hydroxy-3′-(2-methoxy-6-(piperazin-1-yl)pyridin-4-yl)-[1,1′-biphenyl]-4-yl)acetamide] are 7.00 to 8.00 and 300 to 3000 nM.
Regarding `Cc1nc(-c2cccc(N3CCN(C(C)(C)C)CC3)c2)c(O)c(-c2ccc(-n3ccn(C)c3=O)c(Cl)c2)n1` [Example 920, 1-(4-{6-[3-(4-tert-Butyl-piperazin-1-yl)-phenyl]-5-hydroxy-2-methyl-pyrimidin-4-yl}-2-chloro-phenyl)-3-methyl-1,3-dihydro-imidazol-2-one], the pIC50 in assay [1] (setting [5]) was less than 7.00. This compound also displayed a GI50 in assay [2] (setting [6]) of 30 to 300 nM.
Consider `CC(C)c1cc(-c2ccnc(N3CCNCC3)c2)c(O)c(-c2ccc(N3CCN(C)C3=O)c(Cl)c2)c1` [Example 315, l-(3-chloro-2′-hydroxy-5′-isopropyl-3′-(2-(piperazin-1-yl)pyridin-4-yl)-[1,1-biphenyl]-4-yl)-3-methylimidazolidin-2-one], for which, in assay [1] (setting [3]), the pIC50 is 7.00 to 8.00. This compound also had a GI50 in assay [2] (setting [4]) of 300 to 3000 nM.
On the same counts, the results for `COCCCn1cc(-c2cc(F)cc(-c3ccc(-n4ccn(C)c4=O)c(Cl)c3)c2O)cc(N2CCN[C@H](C)C2)c1=O` [Example 660, (R)-5-(3′-chloro-5-fluoro-2-hydroxy-4′-(3-methyl-2-oxo-2,3-dihydro-1H-imidazol-1-yl)-[1,1′-biphenyl]-3-yl)-1-(3-methoxypropyl)-3-(3-methylpiperazin-1-yl)pyridin-2(1H)-one] are 9.00 to 11.00 and 30 to 300 nM.
Regarding `CC(C)N1CCC[C@]12CCN(c1cccc(-c3cc(F)cc(-c4ccc(-n5ccn(C)c5=O)c(Cl)c4)c3O)c1)C2` [Example 967, (R)-1-(3-chloro-5′-fluoro-2′-hydroxy-3″-(1-isopropyl-1,7-diazaspiro[4.4]nonan-7-yl)-[1,1′:3′,1″-terphenyl]-4-yl)-3-methyl-1,3-dihydro-2H-imidazol-2-one], in assay [1] (setting [5]), the negative logarithm of the IC50 (pIC50) was 8.00 to 9.00. In assay [2] (setting [6]), the GI50 is 30 to 300 nM.
In the same order, the values of `Cn1ccn(-c2ccc(-c3cccc(-c4cccc(N5CCN(C(C)(C)C)CC5)c4)c3O)cc2Cl)c1=O` [Example 1021, 1-(3″-(4-(tert-butyl)piperazin-1-yl)-3-chloro-2′-hydroxy-[1,1′:3′,1″-terphenyl]-4-yl)-3-methyl-1H-imidazol-2(3H)-one] are 9.00 to 11.00 and 0.3 to 30 nM.
Take `CN1CCN(c2ccc(-c3cc(F)cc(-c4ncc(N5CCOCC5)cc4N4CCNCC4)c3O)cc2Cl)C1=O` [Example 416, 1-(3-chloro-5′-fluoro-2′-hydroxy-3′-(5-morpholino-3-(piperazin-1-yl)pyridin-2-yl)-[1,1′-biphenyl]-4-yl)-3-methylimidazolidin-2-on]: in assay [1] (setting [3]), the pIC50 was 7.00 to 8.00. In addition, in assay [2] (setting [4]), the 50% growth inhibitory concentration (GI50) is no less than 3000 nM.
